Patent publication US20190315823A1, “SMALL CATIONIC ANTI-BIOFILM AND IDR PEPTIDES” (priority 2013, published 2019)
Ends that are not written are not given here.

Columns and labels:
[1] = test system: methicillin resistant Staphylococcus aureus (MRSA) biofilm; conditions: approximate peptide concentration […] (around 3 μg/ml); compared to untreated samples
Experimental: Methods of assessment of anti-biofilm activity—Biofilm formation was initially analyzed using a static abiotic solid surface assay as described elsewhere (de la Fuente-Nunez et al., 2012). Dilutions (1/100) of overnight cultures were incubated in BM2 biofilm-adjusted medium [62 mM potassium phosphate buffer (pH 7), 7 mM (NH4)2SO4, 2 mM MgSO4, 10 μM FeSO4, 0.4% (wt/vol) glucose, 0.5% (wt/vol) Casamino Acids], or a nutrient medium such as Luria Broth, in polypropylene microtiter plates (Falcon, United States) in the absence (control) or presence of peptide. Peptide was added at time zero (prior to adding the diluted, overnight cultures) in varying concentrations, and the decrease in biofilm formation was recorded at 22-46 h for most bacteria. Planktonic cells were removed, biofilm cells adhering to the side of the tubes were stained with crystal violet, and absorbance at 595 nm was measured using a microtiter plate reader (Bio-Tek Instruments Inc., United States). Some peptides were screened against two Gram negative organisms, P. aeruginosa and K. pneumoniae using a Bioflux apparatus (AutoMate Scientific, Berkeley, Calif.; http://www.autom8.com/bioflux_biofilm.html), which allows for the high-throughput, real-time analysis of biofilms.

[2] = test system: human peripheral blood mononuclear cells (MCP-1); assay: SPOT-synthesized derivative screen: production of chemokine MCP-1; assay type: cell-based; conditions: Table 12, No LPS, human PBMC, peptide at ~18-24 μM; for MCP1: background subtracted 139 (HH2 derivatives), 170 (1018 derivatives), 242 (1002 and hybrid peptides) pg/ml
Experimental: Venous blood (20 ml) from healthy volunteers was collected in Vacutainer® collection tubes containing sodium heparin as an anticoagulant (Becton Dickinson, Mississauga, ON) in accordance with UBC ethical approval and guidelines. Blood was diluted 1:1 with complete RPMI 1640 medium and separated by centrifugation over a Ficoll-Paque® Plus (Amersham Biosciences, Piscataway, N.J., USA) density gradient. White blood cells were isolated from the buffy coat, washed twice in RPMI 1640 complete medium, and the number of peripheral blood mononuclear cells (PBMC) was determined by Trypan blue exclusion. PBMC (5×10^5) were seeded into 12-well tissue culture dishes (Falcon; Becton Dickinson) at 0.75 to 1×10^6 cells/ml at 37° C. in 5% CO2. The above conditions were chosen to mimic conditions for circulating blood monocytes entering tissues at the site of infection via extravasation.
Following incubation of the cells under various treatment regimens, the tissue culture supernatants were centrifuged at 1000×g for 5 min, then at 10,000×g for 2 min to obtain cell-free samples. Supernatants were aliquoted and then stored at −20° C. prior to assay for various chemokines by capture ELISA (eBioscience and BioSource International Inc., CA, USA respectively)

[3] = test system: LPS-stimulated human peripheral blood mononuclear cells (IL1-β); assay type: cell-based; conditions: Table 12, cells stimulated with 10 ng/ml LPS; for IL1β Production: LPS alone 1313 (HH2 derivatives), 1927 (1018 derivatives), 2455 (1002 and hybrid peptides) pg/ml
Experimental: LPS from P. aeruginosa strain H103 was highly purified free of proteins and lipids using the Darveau-Hancock method. Briefly, P. aeruginosa was grown overnight in LB broth at 37° C. Cells were collected and washed and the isolated LPS pellets were extracted with a 2:1 chloroform:methanol solution to remove contaminating lipids. Purified LPS samples were quantitated using an assay for the specific sugar 2-keto-3-deoxyoctosonic acid (KDO assay) and then resuspended in endotoxin-free water (Sigma-Aldrich).

| Substance | % Biofilm inhibition [1] [%] | Fold increase in MCP1 cf. untreated cells [2] | MCP1 [2] [pg/mL] | Fold change in IL1β relative to no peptide LPS stimulated cells [3] | IL1β Production [3] [pg/mL] |
| --- | --- | --- | --- | --- | --- |
| 1002-A2: single substituted 1002 peptide (VARWLIVWRIRK-NH2) [Peptide 1002-A2] | 68 | 2.0 | 245.4 | 0.05 | 127 |
| HH2-W6: single substituted HH2 peptide (VQLRIWVAVIRA-NH2) | 56 | 4.1 | 534 | 0.55 | 718 |
| HH2-Q1: single substituted HH2 peptide (QQLRIRVAVIRA-NH2) | 57 | 65 | 10838 | 0.89 | 1171 |
| HH2-K10: single substituted HH2 peptide (VQLRIRVAVKRA-NH2) | 68 | 5.7 | 797 | 1.43 | 1878 |
| 1002-L6: single substituted 1002 peptide (VQRWLLVWRIRK-NH2) [Peptide 1002-L6] | 52 | 1.3 | 68.0 | 0.05 | 127 |
| HH2-Q7: single substituted HH2 peptide (VQLRIRQAVIRA-NH2) | 21 | 3.9 | 488 | 1.00 | 1316 |
| 1018-L8: single substituted 1018 peptide (VRLIVAVLIWRR-NH2) [Peptide 1018-L8] | 40 | 0.5 | -83 | 0.42 | 553 |
| 1018-W1: single substituted 1018 peptide (WRLIVAVRIWRR-NH2) [Peptide 1018-W1] | 68 | 5.0 | 684 | 0.16 | 204 |
| HH2-L10: single substituted HH2 peptide (VQLRIRVAVLRA-NH2) | 63 | 21 | 3338 | 1.04 | 1359 |
| 1002-W5: single substituted 1002 peptide (VQRWWIVWRIRK-NH2) [Peptide 1002-W5] | 76 | 0.9 | -36.2 | 0.05 | 127 |
| 1002-V10: single substituted 1002 peptide (VQRWLIVWRVRK-NH2) [Peptide 1002-V10] | 63 | 2.3 | 308.0 | 0.05 | 127 |
| 1002-G4: single substituted 1002 peptide (VQRGLIVWRIRK-NH2) [Peptide 1002-G4] | 42 | 1.1 | 33.0 | 0.29 | 723 |
| HH2-L6: single substituted HH2 peptide (VQLRILVAVIRA-NH2) | 18 | 1.8 | 138 | 0.69 | 901 |
| 1002-Q6: single substituted 1002 peptide (VQRWLQVWRIRK-NH2) [Peptide 1002-Q6] | 22 | 0.9 | -36.2 | 0.35 | 859 |
| HH2-K3: single substituted HH2 peptide (VQKRIRVAVIRA-NH2) | 14 | 11 | 1763 | 1.34 | 1761 |
| HH2-K9: single substituted HH2 peptide (VQLRIRVAKIRA-NH2) | 52 | 2.1 | 180 | 1.16 | 1520 |
| 1018-K12: single substituted 1018 peptide (VRLIVAVRIWRK-NH2) [Peptide 1018-K12] | 67 | 4.1 | 531 | 0.10 | 127 |
| 1018-A11: single substituted 1018 peptide (VRLIVAVRIWAR-NH2) [Peptide 1018-A11] | 59 | 0.6 | -65 | 0.87 | 1148 |
| 1018-A2: single substituted 1018 peptide (VALIVAVRIWRR-NH2) [Peptide 1018-A2] | 64 | 0.6 | -65 | 0.10 | 127 |
| HH2-G4: single substituted HH2 peptide (VQLGIRVAVIRA-NH2) | 40 | 148 | 25045 | 1.21 | 1582 |
| 1002-K11: single substituted 1002 peptide (VQRWLIVWRIKK-NH2) [Peptide 1002-K11] | 74 | 3.2 | 543.3 | 0.05 | 127 |
| HH2-G12: single substituted HH2 peptide (VQLRIRVAVIRG-NH2) | 69 | 68 | 11442 | 1.09 | 1433 |
| HH2-A5: single substituted HH2 peptide (VQLRARVAVIRA-NH2) | 45 | 1.3 | 59 | 1.60 | 2095 |
| HH2-W9: single substituted HH2 peptide (VQLRIRVAWIRA-NH2) | 75 | 31 | 4995 | 0.80 | 1050 |
| HH2-A2: single substituted HH2 peptide (VALRIRVAVIRA-NH2) | 69 | 3.8 | 471 | 1.23 | 1612 |
| HH2C-HH2N: derivative of HH2, 1002 and 1018 made by SPOT synthesis (VAVIRAVQLRIR-NH2) | 61 | 2.0 | 239.0 | 0.31 | 769 |
